Drawing on PubChem BioAssay (NCI), this text covers TGI and GI50 for 39 molecules.

“And” between values parts separate entries of the source, which are not always exact repeats. Equal values may be shown once.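 In this assay, cells in 96-well plates receive the compound at five concentrations for 48 hours. Endpoints are linearly interpolated between the surrounding concentrations. At the GI50, growth is halved. Definition used: TGI = concentration required for complete inhibition of growth.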

Test systems include DLD-1 colon; DMS 114 small cell lung; DMS 273 small cell lung; HOP-18 NSCLC; KM20L2 colon; RXF-631 renal; SNB-78 CNS; XF 498 CNS; MDA-N; P388 leukemia.
What all share (assay): NCI tumour cell line growth inhibition, 48 h

On to `O=C(c1ccccc1)C1OC12C(=O)Nc1c(Cl)cc(Cl)cc12` (stereo not given), for which the TGI with DLD-1 colon is 45.7 µM; with DMS 114 small cell lung, over 100 µM; with DMS 273 small cell lung, 47.7 µM; in the assay with HOP-18 NSCLC it was over 100 µM; in the assay on KM20L2 colon, over 100 µM; with RXF-631 renal it was over 100 µM. The TGI was determined as 99.9 µM with SNB-78 CNS and 65.1 µM in the assay on XF 498 CNS.

As for `O=c1ncc(F)cn1C1OC(CO)C(O)C1O` (stereo not given), the TGI with DLD-1 colon was over 100 µM; in the assay with DMS 114 small cell lung it was over 41.9 µM; in the assay with DMS 273 small cell lung it was over 44.6 µM; in the assay on HOP-18 NSCLC, over 100 µM; in the assay with KM20L2 colon it was over 70.6 µM; in the assay with RXF-631 renal, over 100 µM. Moreover, the TGI in the assay with SNB-78 CNS and in the assay on XF 498 CNS was over 100 µM each time.

With `CSc1nc(NC2OC(COC(C)=O)C(OC(C)=O)C(OC(C)=O)C2OC(C)=O)c2c(n1)OCC2=O` (stereo not given), the TGI with DLD-1 colon, in the assay on DMS 114 small cell lung, with HOP-18 NSCLC, with KM20L2 colon, in the assay on RXF-631 renal and with SNB-78 CNS was over 100 µM each time.

On to `CC(C)=CCC/C(C)=C/CC/C(C)=C/CSc1ccccc1C(=O)O`, for which the TGI in the assay with MDA-N worked out at 57.8 µM.

As for `Oc1ccc2ccccc2c1N=Nc1ccsc1`, the TGI with DLD-1 colon, in the assay with DMS 114 small cell lung, in the assay on DMS 273 small cell lung, with HOP-18 NSCLC, in the assay on KM20L2 colon and with RXF-631 renal was over 100 µM each time. In the assay with SNB-78 CNS, this molecule came in with a TGI of over 100 µM.

As for `[N-]=[N+]=NC(c1cn(C2CC(O)C(CO)O2)c(=O)[nH]c1=O)C(Cl)I` (stereo not given), the TGI with MDA-N was over 100 µM.

As for `CCC[CH2][Sn]1([CH2]CCC)[O]CC(CN(C)Cc2ccccc2)[O]1` (stereo not given), the GI50 in the assay on DLD-1 colon is 12.3 µM; in the assay on DMS 114 small cell lung it was 4.73 µM; in the assay with DMS 273 small cell lung, 4.93 µM; with KM20L2 colon, 12 µM; in the assay on SNB-78 CNS it was 2.14 µM; in the assay on XF 498 CNS it was 3.33 µM. Also, the TGI is 26.1 µM in the assay with DLD-1 colon; 14.3 µM in the assay on DMS 114 small cell lung; 20.5 µM in the assay on DMS 273 small cell lung; 26 µM in the assay with KM20L2 colon; 10.8 µM with SNB-78 CNS; 9.77 µM in the assay with XF 498 CNS.

For the molecule `CC(=O)OC[C@@H](COC(=O)/C=C/c1ccc(O)cc1)OC1OC(CO)C(O)C(O)C1O` (stereo not given in full), the TGI in the assay on DLD-1 colon, in the assay on HOP-18 NSCLC, with KM20L2 colon, with RXF-631 renal, with SNB-78 CNS and in the assay with XF 498 CNS was over 100 µM in each case.

`O=c1c(Br)cc2nc3ccccc3sc-2c1Br`: the TGI in the assay on DLD-1 colon was over 100 µM; with DMS 114 small cell lung it was 34.6 µM; in the assay with DMS 273 small cell lung, over 100 µM; in the assay with KM20L2 colon it was over 100 µM; with RXF-631 renal, over 100 µM; with SNB-78 CNS it was over 100 µM. Further, the TGI with XF 498 CNS came out at 61.8 µM.

`C/C(CC(=O)Nc1ccc(C)c(C)c1)=N\NC(N)=O`: the TGI in the assay on DLD-1 colon, in the assay with DMS 114 small cell lung, in the assay on KM20L2 colon and in the assay on SNB-78 CNS was over 100 µM in each case.

Molecule `CCOC(=O)C1c2[nH]c3ccccc3c2CCN1C(=O)c1ccc(OC)o1` (stereo not given) yielded a TGI with MDA-N of over 10 µM.

Turning to `O=[P+](O)c1ccsc1`, the TGI in the assay on DLD-1 colon, in the assay on DMS 114 small cell lung, in the assay with DMS 273 small cell lung, in the assay on HOP-18 NSCLC, in the assay with KM20L2 colon and in the assay on RXF-631 renal was over 100 µM throughout.

`C/C1=C/C(=O)O[C@@H]2C[C@@H](CC[C@H](C)/C=C\C=C\CC1)O[C@@](O)([C@@H]1CSC(=O)N1)C2` displayed a TGI with MDA-N of over 10 µM.

For the molecule `Cc1ccc(/C(O)=C/C(=O)C(=O)NC23CC4CC(CC(C4)C2)C3)cc1`, the TGI with MDA-N was over 10 µM.

On to `Cc1cccc(C)c1NC(=O)C1C(=O)N(c2c(C)cccc2C)C(=O)/C1=N\N` (stereo not given), for which the TGI in the assay with DLD-1 colon, in the assay on DMS 273 small cell lung, in the assay on HOP-18 NSCLC, in the assay with KM20L2 colon and with RXF-631 renal was over 100 µM in each case.

`CC1CCCC(C(O)CC2CC(=O)NC(=O)C2)C1O` (stereo not given) came in with a TGI in the assay with MDA-N of over 100 µM.

`C[C@]12CC/C(=N\O)C=C1CC[C@@H]1C2CC[C@@]2(C)C1CC[C@@H]2OC1CCCCO1` (stereo not given in full): the TGI in the assay with DLD-1 colon is over 100 µM; with DMS 114 small cell lung it was 46.6 µM; with DMS 273 small cell lung it was 32.6 µM; with HOP-18 NSCLC, 30 µM; in the assay on KM20L2 colon, 30.4 µM; in the assay on SNB-78 CNS, 41.7 µM.

With `CC1=C(O)C(=O)C2C(=O)C1C1Cc3ccccc3C21` (stereo not given), the TGI with DLD-1 colon, in the assay with DMS 273 small cell lung, in the assay with RXF-631 renal, with SNB-78 CNS and in the assay with XF 498 CNS was over 100 µM throughout.

Regarding `COc1ccc(C2SCC(=O)N2NC(=O)c2ccc(NC(C)=O)cc2)c(OC)c1` (stereo not given), in the assay with MDA-N, the TGI is over 100 µM.

As to `O=C(CCN1CCN(c2ccccc2)CC1)N1CCc2c([nH]c3ccccc23)C1c1cccnc1` (stereo not given), the TGI in the assay with DLD-1 colon was found to be 36.2 µM; with DMS 114 small cell lung, 27 µM; with DMS 273 small cell lung, 32.3 µM; in the assay with HOP-18 NSCLC, 36.1 µM; in the assay on KM20L2 colon it was 29.5 µM; in the assay with SNB-78 CNS, 37 µM.

As for `CC(C)([NH-])CO.CC(C)([NH-])CO.[Cl][Cd][Cl]`, the GI50 in the assay on DMS 114 small cell lung was 19.8 µM; in the assay with DMS 273 small cell lung, 13.5 µM; in the assay with KM20L2 colon, 30.9 µM; with XF 498 CNS it was 20.4 µM. Further, the TGI in the assay on DMS 114 small cell lung was 46.7 µM; in the assay on DMS 273 small cell lung, 30.2 µM; with KM20L2 colon, 79.7 µM; in the assay on XF 498 CNS, 69.1 µM.

In the case of `NC(=O)/N=C1/CCC2C3CCCC2C13`, the TGI with DLD-1 colon, in the assay with DMS 114 small cell lung, in the assay on DMS 273 small cell lung, in the assay on HOP-18 NSCLC, with KM20L2 colon and in the assay on SNB-78 CNS was over 100 µM in each case. The molecule also returned a TGI in the assay on XF 498 CNS of over 100 µM.

`O=C(O)C1(C(=O)O)CCC1.[NH2-].[NH2-].[Pt+2]`: the GI50 in the assay with DLD-1 colon is 206 µM; in the assay with DMS 273 small cell lung, 64.7 µM; with HOP-18 NSCLC it was > 77.3 µM and 111 µM; in the assay on KM20L2 colon, 212 µM; in the assay on MDA-N it was 182 µM and > 220 µM; in the assay with P388 leukemia, 15.4 µM. The GI50 in the assay on SNB-78 CNS was 96.4 µM. The TGI was over 237 µM in the assay on DLD-1 colon; 228 µM in the assay with DMS 273 small cell lung; 118 µM in the assay on HOP-18 NSCLC; over 235 µM in the assay with KM20L2 colon; over 250 µM in the assay on MDA-N; 169 µM in the assay on P388 leukemia. In the assay on SNB-78 CNS, this molecule had a TGI of 217 µM.

Turning to `COc1ccc(-c2cc(=O)c3cc(OC)ccc3[nH]2)cc1`, the TGI in the assay with DLD-1 colon, in the assay on DMS 114 small cell lung, with HOP-18 NSCLC, in the assay with KM20L2 colon and in the assay with SNB-78 CNS was over 100 µM each time.

Consider `CC(C)O/N=C/c1cc(NC(=S)OC(C)C)ccc1Cl`, for which, in the assay on MDA-N, the TGI was over 100 µM.

For the molecule `CN1C(=O)C2C3C=C4c5ccccc5N(c5ccccc5)C4(C2C1=O)[C@H]1C(=O)N(C)C(=O)[C@@H]31` (stereo not given in full), the TGI in the assay on DLD-1 colon, in the assay on DMS 114 small cell lung, in the assay with KM20L2 colon and in the assay with XF 498 CNS was over 100 µM in each case.

As for `O=C(O)CCC(N=Cc1nc(-c2ccccc2)oc1O)C(=O)O` (stereo not given), the TGI in the assay on DLD-1 colon, in the assay on DMS 114 small cell lung, in the assay with DMS 273 small cell lung, with HOP-18 NSCLC, in the assay on KM20L2 colon and in the assay with RXF-631 renal was over 100 µM throughout. Also, in the assay with SNB-78 CNS, the TGI was over 100 µM.

Regarding `COc1ccc(/C(Cl)=C(\C=N/O)c2ccc(OC)c(OC)c2)cc1OC`, the TGI in the assay on DLD-1 colon, in the assay on DMS 114 small cell lung, in the assay on DMS 273 small cell lung, in the assay with HOP-18 NSCLC, in the assay on KM20L2 colon and with SNB-78 CNS was over 100 µM in each case. In the assay on XF 498 CNS, this molecule yielded a TGI of over 100 µM.

For the molecule `Cn1cnc([N+](=O)[O-])c1Sc1nc(N)nc2c1ncn2C1CC(O)C(CO)O1` (stereo not given), the TGI with MDA-N is over 100 µM.

For the molecule `COC(=O)C(C(=O)C(=O)Nc1ccc([N+](=O)[O-])cc1[N+](=O)[O-])c1nc2ccc(Cl)cc2[nH]c1=O` (stereo not given), the TGI with DLD-1 colon, in the assay on DMS 114 small cell lung, with DMS 273 small cell lung, in the assay with HOP-18 NSCLC, with KM20L2 colon and with SNB-78 CNS was over 100 µM in each case. The molecule further showed a TGI with XF 498 CNS of over 100 µM.

`Cc1cccc(C(C)(C)C)c1NC(=O)CC1C(=O)Nc2ccccc2S1(=O)=O` (stereo not given): the TGI with DLD-1 colon was found to be 18.3 µM; with DMS 273 small cell lung, 14.9 µM; in the assay with KM20L2 colon, 22.3 µM; in the assay on SNB-78 CNS, 22.1 µM; with XF 498 CNS, 23.1 µM.

Take `CC(Nc1ccc(S(=O)(=O)N=C(N)N)cc1)c1c2ccccc2nc2ccccc12` (stereo not given): the TGI was over 100 µM in the assay with DLD-1 colon; over 100 µM in the assay with DMS 114 small cell lung; over 100 µM with DMS 273 small cell lung; over 100 µM in the assay with KM20L2 colon; 96.6 µM in the assay with RXF-631 renal; 36.1 µM with XF 498 CNS.

Turning to `Nc1nc2c(ncn2C2C=CC(CO)C2)c(=O)[nH]1` (stereo not given), the TGI in the assay with MDA-N was over 100 µM.

Molecule `COc1ccc2ccccc2c1C1NC(=O)c2ccccc2N1` (stereo not given) had a TGI in the assay with MDA-N of 0.413 µM.

`Cn1cnc([N+](=O)[O-])c1Sc1nccn1-c1cccc2ccccc12`: the TGI in the assay with DLD-1 colon was 98.5 µM; in the assay on DMS 114 small cell lung it was 62 µM; in the assay with DMS 273 small cell lung, 79.8 µM; in the assay on HOP-18 NSCLC it was 8.89 µM; with KM20L2 colon, over 100 µM; with RXF-631 renal, 84.2 µM. Besides, the TGI with SNB-78 CNS was determined as 77.9 µM; in the assay with XF 498 CNS it was 58.9 µM.

For the molecule `CC(=O)C1C(c2ccc(N(C)C)cc2)c2cc3c(cc2OC1(C)O)OCO3` (stereo not given), the TGI in the assay on DLD-1 colon was over 100 µM; in the assay with DMS 114 small cell lung, 93.3 µM; in the assay on DMS 273 small cell lung, over 100 µM; in the assay with HOP-18 NSCLC it was over 100 µM; in the assay with KM20L2 colon, 26.6 µM; with SNB-78 CNS it was over 100 µM. Besides, the TGI in the assay with XF 498 CNS was over 100 µM.

`NCC1OC(n2cnc3c(N)ncnc32)CC1O` (stereo not given) had a TGI with MDA-N of over 100 µM.

Take `Oc1ccc(C(c2ccc(O)cc2)c2ccc(O)cc2)cc1`: in the assay on MDA-N, the TGI came to 56 µM.

`COc1cc(-c2cc(O)c(-c3ccc4ccccc4n3)c(=O)[nH]2)cc(OC)c1OC`: in the assay on MDA-N, the TGI was determined as 34.9 µM.
